The subject of data set [1] is A549 cells. The data set can be described thus: Apoptosis by annexin V-FITC/PI FACS, A549. The format is cell-based. Conditions: Homo sapiens, 48 h, Q4 lower left, annexin V-FITC and PI negative, read-out: FACS quadrant Q4 viable cells, A549. The protocol: (§1) Then, the cells were stained with propidium iodide and Annexin V-FITC using a FITC Annexin V apoptosis detection kit (BD Biosciences, San Jose, CA, USA) as per the manufacturer’s instructions. Briefly, the vehicle- or the drug-treated cells (1 × 10^5) were washed with ice-cold PBS twice and suspended in 1× binding buffer (100 μL). Then, 5 μL of Annexin V-FITC and 5 µL of PI were added, gently vortexed, and incubated for 15 min at 25 °C in the dark. Thereafter, 400 µL of 1× binding buffer was added and analyzed by flow cytometry (FACSVerse Cytometer, BD Biosciences).

Data set [2] relates to Hep3B cells. The data set can be described thus: Apoptosis by annexin V-FITC/PI FACS, Hep3B. The format is cell-based. Conditions: Homo sapiens, 48 h, Q4 lower left, annexin V-FITC and PI negative, read-out: FACS quadrant Q4 viable cells, Hep3B. As for the experimental part: as §1
Data set [3] concerns Hep3B cells xenografted onto CAM. Put plainly: Hep3B xenografted CAM tumor model. The note with it: 30 and 150 pmol/CAM, 4 days of incubation. The format is in vivo, chick. The protocol: Fertilized chicken eggs were purchased from Byeolbichon Farm (Gyeongbuk, South Korea) and incubated at 37 °C with 55% relative humidity. On day 9 of egg incubation, a small hole was made in the shell over the air sac after the selection of bifurcated vessels. Another hole was made on the broadside using a needle by applying negative pressure to the wider part, creating false air sac. Using a grinding wheel (Dremel, Racine, WI, USA), a small window (1 cm^2) was created in the eggshell above the false air sac. […] The mixture was inoculated on the CAM (final drug doses = 30 and 150 pmol/CAM), and the anti-tumor activity of the drugs was compared at the same concentrations. After sealing the window in the eggshell, the eggs were then returned to the incubator. After 4 days of incubation, tumor tissues attached to CAM were resected from the embryo and harvested. The number of vessel branch points within the tumor region was counted and analyzed using ImageJ software. Chick embryo experiments were performed in accordance with the institutional guidelines of the Institute of Laboratory Animal Resources (1996) and Yeungnam University for the care and use of laboratory animals (2009). The experiment protocol was reviewed and approved by the Institutional Animal Care and Use Committee at the Yeungnam University.

A short description of data set [4]: Cytotoxicity assay (MTT), H6c7 normal pancreatic duct epithelial cells. It counts as cell-based. The note with it: normal human pancreatic duct epithelial cells, mean ± S.E.M., read-out: IC50 against cell viability (cytotoxicity), H6c7. As for the experimental part:
(§2) Human cancer cell lines derived from the liver (Hep3B, Huh7) and the lung (A549, H1299) were obtained from American Type Culture Collection (ATCC, Manassas, VA, USA). An H6c7 human normal pancreatic duct epithelial cell line was purchased from Kerafast (Boston, MA, USA). Hep3B, Huh7, and A549 cells were cultured in Dulbecco′s Modified Eagle′s Medium (DMEM) (Hyclone, Logan, UT, USA), and H1299 cells were cultured in an RPMI-1640 medium (Hyclone). The media were supplemented with 10% fetal bovine serum (FBS) (Gibco/ThermoFisher Scientific) and 1% penicillin/streptomycin (Gibco/ThermoFisher Scientific). In the case of H6c7, the cells were maintained in a keratinocyte serum-free medium supplemented with a recombinant […] (rEGF) and bovine pituitary extract (Gibco/ThermoFisher Scientific). All the cells were incubated at 37 °C under a 5% CO2 atmosphere.
The H6c7 cell line was seeded in a 96-well plate in a complete medium. After 24 h, the culture medium was changed into a keratinocyte serum-free medium. […] The optical density was measured at 540 nm using a Spectrostar Nano microplate reader (BMG LABTECH).

For a further data set, the system named is normal cell lines. On the set-up: method as in PMID 27145715. The note with it: cited from earlier work.
The subject of data set [5] is several cancer cell lines. Also noted: method as in PMID 27145715. Conditions: cited from earlier work.
A further data set has as its system H1299 cells. Put plainly: Proliferation assay (MTT), H1299. The format is cell-based. Conditions: Homo sapiens, NCI-H1299, NSCLC cell line, 48 h, mean ± S.E.M., read-out: IC50 against cell proliferation, H1299.
Source text: as §2, with “Hep3B, Huh7, and A549 cells were cultured in Dulbecco′s Modified Eagle′s Medium (DMEM) (Hyclone, Logan, UT, USA), and H1299 cells were cultured in an RPMI-1640 medium (Hyclone).” left out, “Scientific).” for “Scientific). All the cells were incubated at 37 °C under a 5% CO2 atmosphere.”
(§3) HCC (Hep3B, Huh7) and NSCLC (A549, H1299) cell lines were seeded in a 96-well plate at a density of 2.5 × 10^4 cells/mL in complete media and allowed to adhere for 24 h. […] Then, the media were removed, and 200 µL of dimethyl sulfoxide (DMSO) (Duksan, Ansan, South Korea) was added to solubilize the formazan crystal. After a 30 min incubation, the absorbance was measured at 540 nm using a microplate reader (BMG LABTECH, Ortenberg, Germany).

The test system of data set [6] is Hep3B cells. The data set can be described thus: Proliferation assay (MTT), Hep3B. It counts as cell-based. The note with it: Homo sapiens, HCC cell line, 48 h, mean ± S.E.M., read-out: IC50 against cell proliferation, Hep3B.
Source text: as §2, with “Hep3B, Huh7, and A549 cells were cultured in Dulbecco′s Modified Eagle′s Medium (DMEM) (Hyclone, Logan, UT, USA), and H1299 cells were cultured in an RPMI-1640 medium (Hyclone).” left out, “Scientific).” for “Scientific). All the cells were incubated at 37 °C under a 5% CO2 atmosphere.”
as §3

The test system of data set [7] is A549 cells. Put plainly: Proliferation assay (MTT), A549. The format is cell-based. The note with it: Homo sapiens, NSCLC cell line, 48 h, mean ± S.E.M., read-out: IC50 against cell proliferation, A549.
Source text: as §2, with “Hep3B, Huh7, and A549 cells were cultured in Dulbecco′s Modified Eagle′s Medium (DMEM) (Hyclone, Logan, UT, USA), and H1299 cells were cultured in an RPMI-1640 medium (Hyclone).” left out, “Scientific).” for “Scientific). All the cells were incubated at 37 °C under a 5% CO2 atmosphere.”
as §3

The subject of a further data set is Huh7 cells. Put plainly: Proliferation assay (MTT), Huh7. The format is cell-based. Conditions: Homo sapiens, Huh-7, HCC cell line, 48 h, mean ± S.E.M., read-out: IC50 against cell proliferation, Huh7.
Source text: as §2, with “Hep3B, Huh7, and A549 cells were cultured in Dulbecco′s Modified Eagle′s Medium (DMEM) (Hyclone, Logan, UT, USA), and H1299 cells were cultured in an RPMI-1640 medium (Hyclone).” left out, “Scientific).” for “Scientific). All the cells were incubated at 37 °C under a 5% CO2 atmosphere.”
as §3

For another data set, the target named is T1, human c-Met kinase (Homo sapiens, UniProt P08581).
T1 construct: purchased Reaction Biology Corporation (Malvern, PA, USA), contract assay service
T1 sequence (P08581 25-1390): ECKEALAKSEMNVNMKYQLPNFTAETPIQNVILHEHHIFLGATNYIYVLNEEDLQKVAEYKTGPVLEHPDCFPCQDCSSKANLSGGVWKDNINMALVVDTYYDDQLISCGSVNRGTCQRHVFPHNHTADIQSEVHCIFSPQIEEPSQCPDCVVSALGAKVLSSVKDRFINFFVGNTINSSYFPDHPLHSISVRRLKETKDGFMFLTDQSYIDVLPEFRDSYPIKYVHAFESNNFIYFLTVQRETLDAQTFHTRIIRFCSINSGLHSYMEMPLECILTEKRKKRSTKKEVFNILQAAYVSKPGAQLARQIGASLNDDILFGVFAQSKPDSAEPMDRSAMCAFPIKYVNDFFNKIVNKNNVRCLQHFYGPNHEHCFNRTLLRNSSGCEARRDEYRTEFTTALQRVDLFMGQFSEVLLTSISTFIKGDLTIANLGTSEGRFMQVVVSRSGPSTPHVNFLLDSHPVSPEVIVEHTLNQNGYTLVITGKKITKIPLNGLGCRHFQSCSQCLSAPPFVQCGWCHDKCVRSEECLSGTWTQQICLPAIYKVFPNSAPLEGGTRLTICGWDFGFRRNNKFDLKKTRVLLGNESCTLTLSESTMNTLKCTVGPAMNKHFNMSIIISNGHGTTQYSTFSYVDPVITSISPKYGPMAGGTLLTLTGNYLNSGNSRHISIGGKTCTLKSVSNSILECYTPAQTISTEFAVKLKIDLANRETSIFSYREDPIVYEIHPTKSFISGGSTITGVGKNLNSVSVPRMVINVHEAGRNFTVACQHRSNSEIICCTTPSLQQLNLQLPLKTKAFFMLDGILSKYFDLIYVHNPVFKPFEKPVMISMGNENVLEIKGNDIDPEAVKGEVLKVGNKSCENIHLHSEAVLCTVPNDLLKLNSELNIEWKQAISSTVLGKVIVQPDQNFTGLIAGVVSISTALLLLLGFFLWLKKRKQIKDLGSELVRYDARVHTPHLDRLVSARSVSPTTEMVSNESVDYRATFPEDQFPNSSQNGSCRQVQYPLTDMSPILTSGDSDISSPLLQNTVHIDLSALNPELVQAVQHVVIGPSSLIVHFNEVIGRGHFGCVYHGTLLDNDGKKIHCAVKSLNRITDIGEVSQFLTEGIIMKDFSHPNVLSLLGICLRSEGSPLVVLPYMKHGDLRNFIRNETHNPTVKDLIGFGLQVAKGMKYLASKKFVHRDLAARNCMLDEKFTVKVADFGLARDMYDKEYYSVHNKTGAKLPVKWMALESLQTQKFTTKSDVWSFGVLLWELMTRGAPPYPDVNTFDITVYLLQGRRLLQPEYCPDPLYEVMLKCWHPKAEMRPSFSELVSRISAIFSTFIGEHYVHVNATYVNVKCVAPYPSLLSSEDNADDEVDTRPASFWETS
The data set can be described thus: c-Met kinase assay (Kinase HotSpot, Reaction Biology). The format is biochemical. Conditions: for c-Met inhibition at fixed concentration / inhibition at 1 µM: 1 μM compound; for c-Met inhibition at fixed concentration: 1 µM; for inhibition at 1 µM: read-out: c-Met inhibition at fixed concentration; for IC50: three independent experiments, ATP 10 μM, read-out: IC50 against c-Met kinase. As for the experimental part:
Briefly, human c-Met kinase (5–10 mU) and peptide substrate ([…], 20 µM) were prepared in a reaction buffer with a final volume of 25 μL. The compounds were delivered into the reaction, followed ~20 min. later by the addition of a mixture of ATP and [γ-33P-ATP] (specific activity approx. 500 cpm/pmol, concentration as required) to a final concentration of 10 μM. […] Then, the reaction was spotted onto a P30 filtermat, and unbound phosphate was removed by washing 3 times for 5 min in 75 mM phosphoric acid and once in methanol prior to drying and scintillation counting. […] IC50 values and curve fits were obtained using GraphPad Prism 5 software.

For another data set, the system named is c-MET. The data set can be described thus: Immunoblotting of c-MET expression and phosphorylation in HCC and NSCLC cell lines. It counts as cell-based, human. Conditions: 10 μM, 24 and 48 h; Hep3B, Huh7, A549, H1299 cells. A general note: A western blot detects proteins with antibodies after separation by electrophoresis.

These results are taken from paper PMC8468607 (International Journal of Molecular Sciences, 2021).

By melting point is commonly meant the temperature of the solid-liquid transition.

Regarding `COc1cc2nccc(Oc3ccc(NC(=O)C4(C(=O)Nc5ccc(F)cc5)CC4)cc3)c2cc1OC` [Cabozantinib, cabozantinib, reference compound], the values for the viability at 10 µM with A549 cells [1] and with Hep3B cells [2] were 81.3% and 79.5%, respectively. The “Tumor-induced angiogenesis (number of new vessel branches)” value in [3] was “significantly blocked”. Besides, the IC50 at 48 h in data set [4] came to 39.4 ± 4.3 µM.

Take `CCN(CC)CCNC(=O)c1c(C)[nH]c(/C=C2\C(=O)Nc3nc(C)c(O)c(C)c32)c1C` [Compound 1]: in the data set with normal cell lines, the “Toxicity to normal cell lines compared to sunitinib” value is “less toxic to normal cell lines”. The “Anti-cancer activity against several cancer cell lines compared to sunitinib” value in [5] was “comparable anti-cancer activity”.

Turning to `COc1cc2nccc(Oc3c(C)nc(NC(=O)C4(C(=O)Nc5ccc(F)cc5)CC4)c(C)c3C)c2cc1OC` [Compound 3], the melting point was 141 °C. Besides, the IC50 in the data set on H1299 cells is more than 100 µM. For the same molecule, the IC50 in the data set on Hep3B cells [6] was more than 100 µM. The IC50 with A549 cells [7] is more than 100 µM. In the data set on Huh7 cells, the IC50 is more than 100 µM. For the same molecule, in data set [4], the IC50 at 48 h is more than 100 µM. On human c-Met kinase, the “c-Met inhibition at fixed concentration” value came out at 4%, the inhibition at 1 µM amounted to 3.8% and the IC50 is more than 1 µM.

As to `COc1cc2nccc(Oc3ccc(NC(=O)C4(C(=O)Nc5ccc(F)cc5)CC4)nc3)c2cc1OC` [Compound 4], the melting point came to 119 °C. Besides, in the data set with c-MET, the “Expression of c-MET and its phosphorylation” value is “significantly reduced”. Moreover, the viability at 10 µM in the data set on A549 cells [1] is 61.8%. Besides, the IC50 in the data set on H1299 cells stood at 8.9 ± 1.2 µM. For the same molecule, in the data set with Hep3B cells [2], the viability at 10 µM was determined as 35.3%. The IC50 in the data set on Hep3B cells [6] came out at 2.1 ± 0.5 µM. The IC50 in the data set on A549 cells [7] worked out at 12.4 ± 6.9 µM. For the same molecule, in data set [3], the “Inhibitory effect on tumor weight” value is recorded as “greater than that of cabozantinib” and the “Tumor-induced angiogenesis (number of new vessel branches)” value is reported as “significantly blocked”. Besides, the IC50 in the data set on Huh7 cells amounted to 6.2 ± 1.8 µM. For the same molecule, in [4], the IC50 at 48 h came to 19.9 ± 1.8 µM. On human c-Met kinase, the “c-Met inhibition at fixed concentration” value is on record as 94%, the inhibition at 1 µM is 94.3% and the IC50 turned out to be 0.0049 ± 0.0023 µM.
